Experimental data reported in ChEMBL document CHEMBL4842306, “Pentadecaibins I-V: 15-Residue Peptaibols Produced by a Marine-Derived Trichoderma sp. of the Harzianum Clade” (J Nat Prod, 2021).
pIC50: −log10 of the molar value. Non-standard residues stand in square brackets, D forms with d. Residues, ends and D or L forms follow the SMILES beside them. Phe(ol) = N[C@H](CO)Cc1ccccc1; Aib = CC(C)(N)C(=O)O

What was measured:
KB = assay: Cytotoxicity against human KB cells assessed as cell viability after 72 hrs by MTT assay; assay type: functional, cell-based
Staphylococcus aureus = assay: Antibacterial activity against Staphylococcus aureus CIP53.156 assessed as inhibition of microbial growth incubated for 24 hrs by spectrophotometry; assay type: functional
Escherichia coli = assay: Antibacterial activity against Escherichia coli CIP54.8T assessed as inhibition of microbial growth incubated for 24 hrs by spectrophotometry; assay type: functional
Candida albicans = assay: […] isolate Candida albicans assessed as inhibition of microbial growth incubated for 24 hrs by spectrophotometry; assay type: functional

SMILES	MIC (Staphylococcus aureus) [µg/mL]	MIC (Escherichia coli) [µg/mL]	MIC (Candida albicans) [µg/mL]	pIC50 (KB)
CC(=O)NC(C)(C)C(=O)N1CCC[C@H]1C(=O)NC(C)(C)C(=O)N[C@@H](C)C(=O)NC(C)(C)C(=O)N[C@@H](C)C(=O)N[C@@H](CCC(N)=O)C(=O)NC(C)(C)C(=O)N[C@H](C(=O)NC(C)(C)C(=O)NCC(=O)N[C@@H](CC(C)C)C(=O)NC(C)(C)C(=O)N1CCC[C@H]1C(=O)N[C@H](C(=O)NC(C)(C)C(=O)NC(C)(C)C(=O)N[C@H](CCC(N)=O)C(=O)N[C@H](CCC(N)=O)C(=O)N[C@H](CO)Cc1ccccc1)C(C)C)C(C)C	–	–	–	5.05
CC[C@@](C)(NC(=O)[C@H](CC(C)C)NC(=O)[C@H](C)NC(=O)CNC(=O)C(C)(C)NC(C)=O)C(=O)N[C@@H](CCC(N)=O)C(=O)N[C@](C)(CC)C(=O)N[C@H](C(=O)NC(C)(C)C(=O)N[C@@H](C)C(=O)NC(C)(C)C(=O)NC(C)(C)C(=O)NC(C)(C)C(=O)N[C@@H](CCC(N)=O)C(=O)N[C@H](CO)Cc1ccccc1)C(C)C	25	> 100	> 100	6.15
CC(=O)NC(C)(C)C(=O)NCC(=O)N[C@@H](C)C(=O)N[C@@H](CC(C)C)C(=O)NC(C)(C)C(=O)N[C@@H](CCC(N)=O)C(=O)NC(C)(C)C(=O)N[C@H](C(=O)NC(C)(C)C(=O)N[C@@H](C)C(=O)NC(C)(C)C(=O)NC(C)(C)C(=O)NC(C)(C)C(=O)N[C@@H](CCC(N)=O)C(=O)N[C@H](CO)Cc1ccccc1)C(C)C (Ac-[Aib]GAL[Aib]Q[Aib]V[Aib]A[Aib][Aib][Aib]Q[Phe(ol)])	25	> 100	> 100	5.62

Now from value to compound, other results behind:

MIC (Staphylococcus aureus) [µg/mL]	MIC (Escherichia coli) [µg/mL]	MIC (Candida albicans) [µg/mL]	SMILES	pIC50 (KB)
> 100	> 100	> 100	CC[C@@](C)(NC(=O)[C@H](CCC(N)=O)NC(=O)C(C)(C)NC(=O)[C@H](CC(C)C)NC(=O)[C@H](C)NC(=O)CNC(=O)C(C)(C)NC(C)=O)C(=O)N[C@@H](CC(C)C)C(=O)NC(C)(C)C(=O)N[C@@H](C)C(=O)NC(C)(C)C(=O)NC(C)(C)C(=O)NC(C)(C)C(=O)N[C@@H](CCC(N)=O)C(=O)N[C@H](CO)Cc1ccccc1	6.10
25	> 100	> 100	CC[C@@](C)(NC(=O)[C@H](CCC(N)=O)NC(=O)C(C)(C)NC(=O)[C@H](CC(C)C)NC(=O)[C@H](C)NC(=O)CNC(=O)C(C)(C)NC(C)=O)C(=O)N[C@H](C(=O)NC(C)(C)C(=O)N[C@@H](C)C(=O)NC(C)(C)C(=O)NC(C)(C)C(=O)NC(C)(C)C(=O)N[C@@H](CCC(N)=O)C(=O)N[C@H](CO)Cc1ccccc1)C(C)C	6.10
> 100	> 100	> 100	CC(=O)NC(C)(C)C(=O)NCC(=O)N[C@@H](C)C(=O)N[C@@H](CC(C)C)C(=O)NC(C)(C)C(=O)N[C@@H](CCC(N)=O)C(=O)NC(C)(C)C(=O)N[C@@H](CC(C)C)C(=O)NC(C)(C)C(=O)N[C@@H](C)C(=O)NC(C)(C)C(=O)NC(C)(C)C(=O)NC(C)(C)C(=O)N[C@@H](CCC(N)=O)C(=O)N[C@H](CO)Cc1ccccc1 (Ac-[Aib]GAL[Aib]Q[Aib]L[Aib]A[Aib][Aib][Aib]Q[Phe(ol)])	5.37
